Source: paper PMC4832243, “Discovery of Potent VEGFR-2 Inhibitors based on Furopyrimidine and Thienopyrimidne Scaffolds as Cancer Targeting Agents” (Scientific Reports, 2016)

Key:
[1] = molecular target: T1, VEGFR-2 (KDR) (Homo sapiens, UniProt P35968); assay: In vitro VEGFR-2 tyrosine kinase activity (Kinase-Glo Plus luminescence, BPS Bioscience); format: biochemical; conditions: for inhibition at 10 µM: single dose concentration of 10 μM; for IC50: 5 concentrations 1 nM - 10 μM
T1 construct: purchased BPS Bioscience 40301
T1 sequence (P35968 20-1356): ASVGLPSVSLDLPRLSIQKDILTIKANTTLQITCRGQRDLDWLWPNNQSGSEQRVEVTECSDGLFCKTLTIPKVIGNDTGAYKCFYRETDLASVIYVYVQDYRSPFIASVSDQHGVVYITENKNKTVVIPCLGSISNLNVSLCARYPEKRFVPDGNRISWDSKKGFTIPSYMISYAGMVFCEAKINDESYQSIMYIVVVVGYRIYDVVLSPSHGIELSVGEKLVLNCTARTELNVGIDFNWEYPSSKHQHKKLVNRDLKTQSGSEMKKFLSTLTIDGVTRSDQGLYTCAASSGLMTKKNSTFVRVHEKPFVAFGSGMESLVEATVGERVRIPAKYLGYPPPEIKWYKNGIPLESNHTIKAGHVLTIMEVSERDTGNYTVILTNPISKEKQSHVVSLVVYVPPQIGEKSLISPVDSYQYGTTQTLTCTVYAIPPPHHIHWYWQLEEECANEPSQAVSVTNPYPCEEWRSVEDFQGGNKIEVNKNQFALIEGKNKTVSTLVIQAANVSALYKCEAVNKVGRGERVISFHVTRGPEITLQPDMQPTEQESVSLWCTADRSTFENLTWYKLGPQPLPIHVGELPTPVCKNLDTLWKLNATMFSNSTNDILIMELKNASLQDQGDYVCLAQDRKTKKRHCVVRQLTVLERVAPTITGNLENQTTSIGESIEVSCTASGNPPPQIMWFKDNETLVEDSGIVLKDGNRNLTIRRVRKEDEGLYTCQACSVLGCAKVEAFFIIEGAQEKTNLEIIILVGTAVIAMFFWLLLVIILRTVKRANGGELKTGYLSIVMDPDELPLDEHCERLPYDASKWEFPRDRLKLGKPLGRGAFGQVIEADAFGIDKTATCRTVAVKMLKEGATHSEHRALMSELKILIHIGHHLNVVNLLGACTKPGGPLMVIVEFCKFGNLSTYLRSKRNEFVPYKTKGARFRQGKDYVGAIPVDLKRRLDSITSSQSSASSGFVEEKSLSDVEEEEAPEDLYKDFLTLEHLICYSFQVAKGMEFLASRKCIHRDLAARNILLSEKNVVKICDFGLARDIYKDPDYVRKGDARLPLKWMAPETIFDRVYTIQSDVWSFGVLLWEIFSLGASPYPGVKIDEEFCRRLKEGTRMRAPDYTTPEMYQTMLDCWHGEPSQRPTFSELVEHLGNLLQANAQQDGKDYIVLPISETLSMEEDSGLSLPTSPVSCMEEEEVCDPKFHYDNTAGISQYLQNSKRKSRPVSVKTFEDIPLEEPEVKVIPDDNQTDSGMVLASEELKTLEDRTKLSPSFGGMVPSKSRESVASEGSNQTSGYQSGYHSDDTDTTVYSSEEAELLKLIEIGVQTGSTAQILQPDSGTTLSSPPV

[2] = test system: HL-60(TB); assay: NCI 60 cell line panel (SRB), HL-60(TB); format: cell-based; conditions: Homo sapiens, Leukemia, single dose of 10 μM, read-out: Cell Growth Percent
[3] = test system: MOLT-4; assay: NCI 60 cell line panel (SRB), MOLT-4; format: cell-based; conditions: Homo sapiens; MOLT-4, Leukemia; single dose of 10 μM; read-out: Cell Growth Percent
[4] = test system: RPMI-8226; assay: NCI 60 cell line panel (SRB), RPMI-8226; format: cell-based; conditions: Homo sapiens; RPMI-8226, Leukemia; single dose of 10 μM; read-out: Cell Growth Percent
[5] = test system: SR; assay: NCI 60 cell line panel (SRB), SR; format: cell-based; conditions: Homo sapiens, Leukemia, single dose of 10 μM, read-out: Cell Growth Percent
[6] = test system: EKVX; assay: NCI 60 cell line panel (SRB), EKVX; format: cell-based; conditions: Homo sapiens, Non-Small Cell Lung Cancer, single dose of 10 μM, read-out: Cell Growth Percent
[7] = test system: NCI-H226; assay: NCI 60 cell line panel (SRB), NCI-H226; format: cell-based; conditions: Homo sapiens; NCI-H226, Non-Small Cell Lung Cancer; single dose of 10 μM; read-out: Cell Growth Percent
[8] = test system: NCI-H322M; assay: NCI 60 cell line panel (SRB), NCI-H322M; format: cell-based; conditions: Homo sapiens, Non-Small Cell Lung Cancer, single dose of 10 μM, read-out: Cell Growth Percent
[9] = test system: NCI-H460; assay: NCI 60 cell line panel (SRB), NCI-H460; format: cell-based; conditions: Homo sapiens; NCI-H460, Non-Small Cell Lung Cancer; single dose of 10 μM; read-out: Cell Growth Percent
[10] = test system: NCI-H522; assay: NCI 60 cell line panel (SRB), NCI-H522; format: cell-based; conditions: Homo sapiens; NCI-H522, Non-Small Cell Lung Cancer; single dose of 10 μM; read-out: Cell Growth Percent
[11] = test system: HCC-2998; assay: NCI 60 cell line panel (SRB), HCC-2998; format: cell-based; conditions: Homo sapiens; HCC-2998, Colon Cancer; single dose of 10 μM; read-out: Cell Growth Percent
[12] = test system: HCT-116; assay: NCI 60 cell line panel (SRB), HCT-116; format: cell-based; conditions: Homo sapiens; HCT-116, Colon Cancer; single dose of 10 μM; read-out: Cell Growth Percent
[13] = test system: HCT-15; assay: NCI 60 cell line panel (SRB), HCT-15; format: cell-based; conditions: Homo sapiens; HCT-15, Colon Cancer; single dose of 10 μM; read-out: Cell Growth Percent
[14] = test system: HT29; assay: NCI 60 cell line panel (SRB), HT29; format: cell-based; conditions: Homo sapiens, HT-29; HT29, Colon Cancer; single dose of 10 μM; read-out: Cell Growth Percent
[15] = test system: SF-295; assay: NCI 60 cell line panel (SRB), SF-295; format: cell-based; conditions: Homo sapiens; SF-295, CNS Cancer; single dose of 10 μM; read-out: Cell Growth Percent
[16] = test system: SF-539; assay: NCI 60 cell line panel (SRB), SF-539; format: cell-based; conditions: Homo sapiens; SF-539, CNS Cancer; single dose of 10 μM; read-out: Cell Growth Percent
[17] = test system: SNB-19; assay: NCI 60 cell line panel (SRB), SNB-19; format: cell-based; conditions: Homo sapiens; SNB-19, CNS Cancer; single dose of 10 μM; read-out: Cell Growth Percent
[18] = test system: SNB-75; assay: NCI 60 cell line panel (SRB), SNB-75; format: cell-based; conditions: Homo sapiens; SNB-75, CNS Cancer; single dose of 10 μM; read-out: Cell Growth Percent
[19] = test system: MALME-3M; assay: NCI 60 cell line panel (SRB), MALME-3M; format: cell-based; conditions: Homo sapiens, Melanoma, single dose of 10 μM, read-out: Cell Growth Percent
[20] = test system: M14; assay: NCI 60 cell line panel (SRB), M14; format: cell-based; conditions: Homo sapiens; M14, Melanoma; single dose of 10 μM; read-out: Cell Growth Percent
[21] = test system: MDA-MB-435; assay: NCI 60 cell line panel (SRB), MDA-MB-435; format: cell-based; conditions: Homo sapiens; MDA-MB-435, Melanoma; single dose of 10 μM; read-out: Cell Growth Percent
[22] = test system: SK-MEL-2; assay: NCI 60 cell line panel (SRB), SK-MEL-2; format: cell-based; conditions: Homo sapiens; SK-MEL-2, Melanoma; single dose of 10 μM; read-out: Cell Growth Percent
[23] = test system: SK-MEL-28; assay: NCI 60 cell line panel (SRB), SK-MEL-28; format: cell-based; conditions: Homo sapiens; SK-MEL-28, Melanoma; single dose of 10 μM; read-out: Cell Growth Percent
[24] = test system: SK-MEL-5; assay: NCI 60 cell line panel (SRB), SK-MEL-5; format: cell-based; conditions: Homo sapiens; SK-MEL-5, Melanoma; single dose of 10 μM; read-out: Cell Growth Percent
[25] = test system: OVCAR-3; assay: NCI 60 cell line panel (SRB), OVCAR-3; format: cell-based; conditions: Homo sapiens; OVCAR-3, Ovarian Cancer; single dose of 10 μM; read-out: Cell Growth Percent
[26] = test system: OVCAR-5; assay: NCI 60 cell line panel (SRB), OVCAR-5; format: cell-based; conditions: Homo sapiens; OVCAR-5, Ovarian Cancer; single dose of 10 μM; read-out: Cell Growth Percent
[27] = test system: NCI/ADR-RES; assay: NCI 60 cell line panel (SRB), NCI/ADR-RES; format: cell-based; conditions: Homo sapiens, Ovarian Cancer, single dose of 10 μM, read-out: Cell Growth Percent
[28] = test system: SK-OV-3; assay: NCI 60 cell line panel (SRB), SK-OV-3; format: cell-based; conditions: Homo sapiens; SK-OV-3, Ovarian Cancer; single dose of 10 μM; read-out: Cell Growth Percent
[29] = test system: 786-0; assay: NCI 60 cell line panel (SRB), 786-0; format: cell-based; conditions: Homo sapiens; 786-0, Renal Cancer; single dose of 10 μM; read-out: Cell Growth Percent
[30] = test system: A498; assay: NCI 60 cell line panel (SRB), A498; format: cell-based; conditions: Homo sapiens; A498, Renal Cancer; single dose of 10 μM; read-out: Cell Growth Percent
[31] = test system: CAKI-1; assay: NCI 60 cell line panel (SRB), CAKI-1; format: cell-based; conditions: Homo sapiens; CAKI-1, Renal Cancer; single dose of 10 μM; read-out: Cell Growth Percent
[32] = test system: MCF7; assay: NCI 60 cell line panel (SRB), MCF7; format: cell-based; conditions: Homo sapiens; MCF7, Breast Cancer; single dose of 10 μM; read-out: Cell Growth Percent
[33] = test system: MDA-MB-231/ATCC; assay: NCI 60 cell line panel (SRB), MDA-MB-231/ATCC; format: cell-based; conditions: Homo sapiens, Breast Cancer, single dose of 10 μM, read-out: Cell Growth Percent
[34] = test system: HS 578T; assay: NCI 60 cell line panel (SRB), HS 578T; format: cell-based; conditions: Homo sapiens, Breast Cancer, single dose of 10 μM, read-out: Cell Growth Percent

Row | SMILES | activity at 10 µM [2] | activity at 10 µM [3] | activity at 10 µM [4] | activity at 10 µM [5] | activity at 10 µM [6] | activity at 10 µM [7] | activity at 10 µM [8] | activity at 10 µM [9] | activity at 10 µM [10] | activity at 10 µM [11] | activity at 10 µM [12] | activity at 10 µM [13] | activity at 10 µM [14] | activity at 10 µM [15] | activity at 10 µM [16] | activity at 10 µM [17] | activity at 10 µM [18] | activity at 10 µM [19] | activity at 10 µM [20] | activity at 10 µM [21] | other results
1 | CCOC(=O)c1c(C)oc2ncnc(Nc3ccc(C(=O)Nc4ccc(OC)cc4)cc3)c12 [Compound 14b] | 88.6% | 92.3% | 91.3% | 74.6% | 91.1% | 94.2% | 112% | 97% | 84% | 114% | 85.1% | 88.5% | 81.1% | 99.3% | 63.8% | 108% | 87.2% | 120% | 101% | 106% | inhibition at 10 µM [1]: 8%; activity at 10 µM [22]: 107%; activity at 10 µM [23]: 95.2%; activity at 10 µM [24]: 87.9%; activity at 10 µM [25]: 110%; activity at 10 µM [26]: 114%; activity at 10 µM [27]: 88.7%; activity at 10 µM [28]: 94.1%; activity at 10 µM [29]: 92.1%; activity at 10 µM [30]: 75.3%; activity at 10 µM [31]: 96.6%; activity at 10 µM [32]: 95.6%; activity at 10 µM [33]: 91%; activity at 10 µM [34]: 83.7%
2 | Cc1cccc(NC(=O)Nc2ccc(Oc3ncnc4sc5c(c34)CCCC5)cc2)c1 [Compound 21b] | 98.4% | 58.1% | 58.9% | 55.8% | 62.8% | 73.1% | 91.2% | 65.2% | 16.1% | 104% | 62.1% | 74.9% | 65.6% | 67.6% | 59.3% | 72% | 51.9% | 104% | 68.2% | 79.3% | IC50 [1]: 0.0334 µM; activity at 10 µM [22]: 99.7%; activity at 10 µM [23]: 91.6%; activity at 10 µM [24]: 72.9%; activity at 10 µM [25]: 63.5%; activity at 10 µM [26]: 114%; activity at 10 µM [27]: 71.5%; activity at 10 µM [28]: 79.7%; activity at 10 µM [29]: 87%; activity at 10 µM [30]: 68.3%; activity at 10 µM [31]: 86%; activity at 10 µM [32]: 44.1%; activity at 10 µM [33]: 81.9%; activity at 10 µM [34]: 76.8%
3 | O=C(Nc1ccccc1)Nc1ccc(Oc2ncnc3sc4c(c23)CCCC4)cc1 [Compound 21a] | 102% | 54% | 50.5% | 24.3% | 60.8% | 66.6% | 99.7% | 70.7% | 15.6% | 89.6% | 67.4% | 49.2% | 74.3% | 64.9% | 44% | 63.1% | 45.6% | 84.2% | 56.5% | 19.2% | IC50 [1]: 0.454 µM; inhibition at 10 µM [1]: > 70%; activity at 10 µM [22]: 87.6%; activity at 10 µM [23]: 86.6%; activity at 10 µM [24]: 67.9%; activity at 10 µM [25]: 74.9%; activity at 10 µM [26]: 107%; activity at 10 µM [27]: 63.2%; activity at 10 µM [28]: 72.2%; activity at 10 µM [29]: 84.8%; activity at 10 µM [30]: 56.7%; activity at 10 µM [31]: 83.4%; activity at 10 µM [32]: 44.5%; activity at 10 µM [33]: 66.2%; activity at 10 µM [34]: 73.6%
